One may read the melting point as the temperature, or range, at which the solid turns liquid. The compound `O=C1CCc2c(F)cc(F)cc2C1` displayed a melting point of 46 °C.

As for `O=C(Nc1cc2ncc(CN3CCCC3)cc2cc1Cl)c1ccc(-c2cc3ccccc3o2)cc1`, the melting point was found to be 209 °C. With `CC(C)C1(C)N=C(c2nc3scc([N+](=O)[O-])c3cc2C(=O)O)NC1=O` (stereo unspecified), the melting point came out at 260 °C.

`O=C=Nc1ccc(Cl)cc1[N+](=O)[O-]` displayed a melting point of 54 to 56 °C. With `CC(=O)Nc1ccc2c(c1)NC(=O)C2CC(C)C` (stereo unspecified) the figure was 214 to 216 °C; with `Cc1cccc(Nc2ncnc3ccc(CSc4nccn4C)cc23)c1`, 137 to 139 °C. `COc1ccc(CC(=O)Nc2ccc3sc(C)nc3c2Cl)cc1` registered a melting point of 173 to 174 °C. On to `CN1CC(c2ccc(S(C)(=O)=O)cc2)=C(c2ccccc2)C1=O`, for which the melting point fell in the range of 163 to 165 °C.

In turn, `O=CC1CC1(c1cccc(F)c1)c1cccc(F)c1` (stereo unspecified) showed a melting point of 49 to 51 °C.

In turn, `C[C@H]1C[C@@](O)(c2ccc(S(=O)(=O)c3ccc4c(c3)CCC(=O)N4C)s2)CCO1` showed a melting point of 80 to 82 °C. In turn, `O=C1c2ccccc2C(=O)N1OCc1cnoc1` gave a melting point of 133 to 135 °C. `Cc1ccc2cc(CC(=O)O)c(=O)[nH]c2n1` registered a melting point of more than 250 °C. Compound `C[C@H](Nc1ncnc2[nH]cnc12)c1oc2ccccc2c(=O)c1-c1ccccc1` had a melting point of 135 to 138 °C. With `Nc1c(-c2ccc(-c3ccc(F)cc3)cc2)nc2ccc(Cl)cc2c1C(=O)O`, the melting point lay within 255 to 257 °C. Turning to `COc1ccc(C(=O)Nc2c(Cl)cncc2Cl)cc1OC1COCC1O` (stereo unspecified), the melting point fell in the range of 183 to 185 °C. With `COc1ccc2[nH]c3c(c2c1)CC(OC(=O)c1ccccc1)CC3` (stereo unspecified) the figure was 135 to 141 °C; with `O=C1N(Cc2ccc(Cl)cc2)c2ccccc2C1(O)c1cccs1` (stereo unspecified), 140 to 143 °C. As to `CCCCC(=O)Nc1ccc([N+](=O)[O-])cc1Cl`, the melting point is 80 to 95 °C.

As for `O=C(OCC1(COC(=O)c2ccccc2)c2ccccc2-c2ccccc21)c1ccccc1`, the melting point fell in the range of 144 to 146 °C. As for `O=C(NNC(=O)c1c(F)c(F)c(F)c(F)c1F)c1cc(Cl)ccc1Cl`, the figure is 227 to 232 °C; as for `COc1ccc(-c2[nH]c(-c3ccc(NCCC(C)C)cc3)nc2C(=O)Nc2nccs2)cc1`, 235 to 239 °C.

`COC=C(C#N)CNC=O` gave a melting point of 84 to 86 °C. With `CCOc1cc(N)c(Cl)cc1C(=O)NC1CCN(CC2CCN(C(=O)N(C)C)CC2)CC1` the figure was 203 to 205 °C.

`O=C(O)c1cnn(-c2ccc(C(F)(F)F)cc2)c1C(F)(F)F` showed a melting point of 157 to 158 °C. In the case of `NC(=O)N(O)CCNC(=O)c1ccc(Oc2ccccc2)o1`, the melting point lay within 160 to 163 °C. On to `NC(=O)c1ccc(NCc2ccc(F)cc2)cn1`, for which the melting point is 166 to 169 °C. In turn, `Cc1nc(NC(=N)N)sc1C(=O)Nc1cccc(OCC(=O)O)c1` displayed a melting point of 284 °C.

Take `Cc1cc(NC(=O)c2cnn(-c3ccc(C(F)(F)F)cc3)c2C)ccc1N1CCC(N2CCOCC2)CC1`: the melting point lay in the range of 252 to 255 °C. The compound `O=C(Nc1cccnc1)N1CCc2ccc(Cl)c(Cl)c21` had a melting point of 178 to 180 °C.

`CCOCCn1cc2c(C3C(=O)Nc4ccc(Cl)cc43)nc(Cl)nc2n1` (stereo unspecified) yielded a melting point of more than 300 °C. With `CC1(C)Oc2ccc(OC(F)(F)F)cc2[C@@H](NC(=O)c2ccco2)[C@@H]1O` (relative stereo) the figure was 146 to 147 °C; with `CN1CCC(=C2c3ccccc3Oc3ccc(C(F)(F)F)cc32)CC1`, 82 to 83 °C; with `O=C(O)C1C2CCC(C2)C1C(F)(F)F` (stereo unspecified), 87 to 90 °C. As for `COC(=O)c1cn2c(=O)c(Br)c(C)nc2s1`, the melting point was 199 to 201 °C.

Consider `O=C1Nc2ccncc2C(=O)C1c1c(F)cccc1Cl` (stereo unspecified), for which the melting point was 249 °C. `CCN(CC)C(=O)N[C@H]1CC[C@H](CCN2CCN(c3cccc4c3CCC4)CC2)CC1` showed a melting point of 157 to 159 °C. With `CCCCCCCCCCCCCc1nnc(C=Cc2ncc([N+](=O)[O-])n2C)s1` the figure was 91 °C. The compound `CCCCCCCCCCCCC1(C(C(=O)Nc2c(C(C)C)cccc2C(C)C)c2ccccc2)C=CNO1` (stereo unspecified) registered a melting point of 107 to 108 °C. `Clc1ccc(CN2CC=C(/C=C/c3cccc(Cl)c3)CC2)cc1` registered a melting point of 94 to 96 °C. For the compound `CC(C)(NS(=O)(=O)c1ccc(-c2ccccn2)s1)C(=O)NO`, the melting point was 165 to 166 °C. Compound `O=C(O)C(=O)CC(=O)c1cccn1Cc1ccccc1` had a melting point of 150 to 151 °C. With `CC(CN(O)C(N)=O)OCc1cc2ccccc2s1` (stereo unspecified) the figure was 132 to 133 °C; with `CCCC(=O)NCCCCn1c(CC)nc2c(N)nc3ccccc3c21`, 148 to 149 °C.

`CCCCCCCCCCNC(=O)OC1CCN(C(=O)OCCCCCCNC(=O)Oc2ccc(Oc3ccccc3)cc2)CC1` showed a melting point of 87 to 91 °C. Regarding `CC(=CC#N)CN1C(=O)c2ccccc2S1(=O)=O`, the melting point lay within 119 to 121 °C. `CCCCN(CCCC)C(=O)Nc1ccccc1` yielded a melting point of 82 °C. With `COc1cc(C)c(S(=O)(=O)c2cccc(C)c2)cc1OC` the figure was 135 to 140 °C; with `COc1ccc(-c2ccnc(-c3cn(C)c(=O)n3-c3ccc(C(C)(C)C#N)cc3)c2)cc1`, 219 °C. Consider `CN1CCCc2c1cc[nH]c2=O`, for which the melting point came out at 260 °C. In turn, `CCOC(=O)c1c(-c2ccc(O)cc2)nc2ccccn12` returned a melting point of 220 °C. With `C=CCOc1ccc(OC2CCCCO2)c2c1NC(=O)CC2` (stereo unspecified) the figure was 111 to 113 °C. In turn, `Cc1noc(NS(=O)(=O)c2ccc(NC(=O)NC3CCCCC3)cc2)c1C` showed a melting point of 190 to 195 °C. As to `O=C1CNc2cc([N+](=O)[O-])c(F)cc2O1`, the melting point lay in the range of 196 to 202 °C. Consider `c1ccc(-c2cc(-c3nc(-c4ccccc4)nc(-c4ccccc4)n3)c(-c3nccc4ccccc34)c(-c3cc4ccccc4c4ccccc34)c2)cc1`, for which the melting point was 272 °C. With `CCCCOc1ccccc1-c1nc(Cl)cc(OCCC(C)C)n1` the figure was 47 to 50 °C; with `C#CCOCc1c(C)nc2c(OCc3ccccc3Cl)cccn12`, 95 to 95.5 °C.

Turning to `C=CS(=O)(=O)CCC(F)(F)C(F)(F)C(F)(F)C(F)(F)C(F)(F)C(F)(F)F`, the melting point was in the range of 58 to 60 °C. On to `Cc1nn(-c2ccccn2)c2[nH]c3ccc(S(C)=O)cc3c(=O)c12` (stereo unspecified), for which the melting point was 268 to 269 °C. `CC(=O)c1cccc(C(=O)Nc2c[nH]nc2C(=O)NCCC#N)c1` had a melting point of 205 to 208 °C.

Take `COc1ccc(CNc2nc(-c3ccco3)c3ncn(Cc4ccc(OC)cc4)c3n2)cc1`: the melting point fell in the range of 153 to 154 °C. `CCNC(=O)c1c(Cl)ccc(N)c1[Si](C)(C)C` yielded a melting point of 147 to 149 °C. `CCn1cccc1C(=O)C(C#N)C(=O)Nc1ccccc1` (stereo unspecified) came in with a melting point of 77 to 79 °C. Take `Cc1nc(C)c(CN2CCN(C)CC2)c(-c2ccccc2OCc2ccc(Cl)cc2)n1`: the melting point lay within 110 to 111 °C. Turning to `O=c1[nH]c(-c2ccccc2)c(F)c(=O)n1-c1ccc(OC(F)(F)F)cc1`, the melting point lay in the range of 295 to 303 °C. For the compound `N#CCc1ccc(OCCc2coc(-c3ccccc3)n2)cc1`, the melting point lay within 81 to 83 °C. In turn, `COc1ccc(C=O)cc1C(=O)NCc1ccc(C(F)(F)F)cc1` displayed a melting point of 116 to 117 °C. Turning to `CSc1noc(-c2ccc(OCCOc3ccc(Br)cc3)cc2)c1C#N`, the melting point fell in the range of 156 to 157 °C.

The compound `CNc1ccccc1C(=O)NCCCn1cncn1` gave a melting point of 131 to 133 °C. Turning to `O=[N+]([O-])c1cnn(-c2ccc(C(F)(F)F)cc2Cl)c1`, the melting point was in the range of 106 to 109 °C. For `CCCCCCC1C(=O)NC(C(=O)SCc2ccccc2)(C(O)C2C=CCCC2)C1(C)O` (stereo unspecified), the melting point was 138 °C. In turn, `O=C(Nc1ccc(Cl)cn1)c1ccccc1O` came in with a melting point of 206 to 207 °C.

Regarding `CN1CCN(C(=O)c2ccc(N)cc2N)CC1`, the melting point is 192 °C. Consider `CC(=O)NC1=NN(c2cccc(C)c2)CC1`, for which the melting point was in the range of 222 to 225 °C. Consider `CN1CCN(CCCCCC(=O)N2c3ccccc3C(=O)Nc3cccnc32)CC1`, for which the melting point was in the range of 179 to 181 °C. The compound `Cc1ccc(F)c(OCCCC(=O)O)c1` came in with a melting point of 62 to 64 °C. As for `COc1ccc(-c2c(Cl)c(CN3C(=O)CCC3=O)nc3sc4c(F)c(O)ccc4c23)cc1`, the figure is 294 to 295 °C; as for `COc1ccc(CCN(C)CCCN(C(C)C)S(=O)(=O)c2ccc(Cl)c(Cl)c2)cc1OC`, 62 to 64 °C; as for `CN1C(=O)CC(c2ccccc2)C1C(O)c1ccc(Br)s1` (stereo unspecified), 105 °C. Regarding `Cn1nnnc1SCCCCSC1=Nc2ccccc2C(=O)NN1`, the melting point lay within 94 to 95 °C. As for `CCn1cc(C(=O)NCc2ccc(Cl)cc2)c(=O)c2cc(C#CCOC(=O)CN3CCOCC3)sc21`, the figure is 168 to 170 °C. Regarding `Cc1nn(-c2ccc(C(F)(F)F)cn2)cc1CCCOc1cc(CC(=O)O)n(C)n1`, the melting point lay within 143 to 144 °C. Take `CC(C(N)=O)c1ccc(C(=O)c2cccs2)cc1` (stereo unspecified): the melting point was 108 to 124 °C. In turn, `CCCCCCCCCCCCCC(=O)Nc1ccc(OC)c(Nc2cc(=O)n(-c3c(Cl)cc(Cl)cc3Cl)[nH]2)c1` came in with a melting point of 89 to 93 °C. As for `O=Cc1cc2cc(OCc3ccccc3)c(F)cc2nc1I`, the melting point turned out to be 210 °C.

For `CCOC(=O)C=Cc1cnn2c(N(C)c3ccccc3)ncnc12`, the melting point was 139 °C. As to `O=c1oc(-c2cccc(OCCc3ccccc3)c2)cc(O)c1SCCc1ccccc1`, the melting point lay within 104 to 106 °C. For `CCCc1c(OCCSc2nc3ccc(C(=O)O)cc3[nH]2)ccc(C(C)=O)c1O`, the melting point lay in the range of 108 to 110 °C. The compound `C#CCCCCOc1cc(C=O)ccc1OC` registered a melting point of 66 to 67 °C. As for `CSc1nncc(C(C)(C)C)n1`, the melting point was 91 to 93 °C. With `CC(CC#CCN1CCN(C)CC1)C(=O)N1c2ccccc2C(=O)Nc2cccnc21` (stereo unspecified) the figure was 212 to 214 °C; with `O=C(NC/C=C\COc1cc(CN2CCCCC2)ccn1)NC1CC1`, 102 to 104 °C.

The values above are taken from a melting point compilation (Tetko et al.; mined from patent text by program, amines drawn as free bases though some values may be those of a salt).
